According to article PMC5214259, “Identification of Guanosine 5′-diphosphate as Potential Iron Mobilizer: Preventing the Hepcidin-Ferroportin Interaction and Modulating the Interleukin-6/Stat-3 Pathway” (Scientific Reports, 2017):

Molecular target: T1, hepcidin (Homo sapiens, UniProt P81172)
T1 construct: gene HAMP; hepcidin-25 (25 amino acid peptide hormone)
T1 sequence (P81172 60-84 limits assumed): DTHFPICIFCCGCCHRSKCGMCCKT
Assay: UV-visible absorption titration (Kd); thermal shift assay (SYPRO orange, Tm […] to […] °C with equimolar GDP)
Format: binding

Kd: 5.88 µM
SMILES: Nc1nc2c(ncn2[C@@H]2O[C@H](COP(=O)(O)OP(=O)(O)O)[C@@H](O)[C@H]2O)c(=O)[nH]1 [ZINC08215481, guanosine 5′-diphosphate]
